One sequence from patent US8951527B2, “Radioprotectants targeting thrombospondin-1 and CD47” (The United States of America, as represented by the …, priority 2008, dated 2015) can be followed below.

Entries after “also recorded” stand apart in the source; their conditions may differ.

The data set concerns HUVEC. Description: HUVEC cell viability after irradiation (MTT / CellTiter 96). In kind it is cell-based, human. As for the experimental part:
FIG. 11. Radioprotective activities of TSP1 and CD47 antibodies, a CD47 binding peptide from TSP1, and a CD47 morpholino. HUVEC were plated on 96-well plates in standard growth medium. Cells were treated with TSP1 (FIG. 11A) or CD47 (FIG. 11B) monoclonal antibodies (clone A6.1 or B6H12, respectively) and received the indicated doses of radiation 24 hours after addition of the antibodies. Cell (mitochondrial) viability was measured 48 hours post irradiation using an MTT assay. Cells were treated using peptide 7N3 (FIG. 11C) and control peptide 604 (FIG. 11D), subjected to the same experimental conditions, and assayed via MTT. […] Experiments were repeated 3 times and results presented as the mean±SD.
FIG. 12. Peptides 7N3 and C6d are radioprotective to HUVEC in culture. Human umbilical vein endothelial cells (HUVEC) grown in EGM medium in 96-well plates were treated with graded doses of a peptide agent, as indicated. One hour later, cells were exposed to a single dose of gamma radiation (0, 10, 20, 30, and 40 Gray) and allowed to incubate 72 hours at 37° C. Cell viability was determined with the CellTiter 96 AQueous One Solution Cell Proliferation Assay.
Cell Viability Assay. HUVEC were plated at a density of 5000 cells/well in 96 well plates (Nunc), and were treated 24 hours later with either the indicated doses of a CD47 antibody (B6H12), a TSP1 antibody (A6.1), the CD47-binding peptide 7N3, or control peptide 604. One hour later the cells were exposed to a single dose of gamma radiation (0, 10, 20, 30, and 40 Gy) and allowed to incubate another 72 hours at 37° C. Experiments done with B16E10 melanoma cells in Example 4 were done in a similar manner treating either 1 hour prior to a single dose of radiation (10 Gy) with peptide 7N3 or 48 hours prior with CD47 morpholino. Cell viability was determined using the CellTiter 96 Aqueous One Solution cell proliferation assay (Promega, Madison, Wis.) as per the manufacturer's instructions and absorbance at 490 nm was determined using an MR580 Microelisa AutoReader (Dynatech, Alexandria, Va.). The same assay was performed on HUVEC using either the CD47 or CD36 morpholino, but 48 hours were allowed to pass prior to radiation (0 or 40 Gy) to allow for suppression of the target proteins. Similarly, control experiments were performed using the nitric oxide synthase (NOS) inhibitor L-NAME, a membrane permeable cGMP analogue, 8-Bromo cGMP, or the NO donor DETA/NO.
In an additional experiment to test the effect of radioprotective peptides, human umbilical vein endothelial cells (HUVEC) grown in EGM medium in 96-well plates were treated with graded doses of a peptide agent, as indicated. One hour later, cells were exposed to a single dose of gamma radiation (0, 10, 20, 30, and 40 Gray) and allowed to incubate 72 hours at 37° C. Cell viability was determined with the CellTiter 96 AQueous One Solution Cell Proliferation Assay.

With “CGTCACAGGCAGGACCCACTGCCCA (all phosphorodiamidate morpholino (PMO)) [CD47 morpholino, CD47 targeting morpholino oligonucleotide]”, the “cell survival of irradiated HUVEC with L-NAME co-incubation” value (co-incubation of L-NAME and CD47 morpholino ± radiation (FIG. 22C)) is listed as “enhancing cell survival”. In addition, the “cell viability post radiation after morpholino pretreatment” value (morpholino 48 hours before radiation (FIG. 11E, F)) was “granted protection against cell death; also recorded: resistant to radiation-driven cell death”.
